From patent publication US20230056604A1, “EPIDERMAL GROWTH FACTOR RECEPTOR TYROSINE KINASE INHIBITORS FOR THE TREATMENT OF CANCER” (AstraZeneca AB, priority 2020, published 2023)
“Also recorded” adds a separate entry of the source.

Assays:
[1] = tested on: EGFRm parental cells (HCC2279, HCC2935, HCC4006, II-18, NCI-H1975 and PC9); experiment: Incucyte Caspase-3/7 apoptosis assay in EGFRm parental cell lines; assay type: cell-based, human; conditions: panel of 6 EGFRm cell lines; osimertinib 160 nM + Smac mimetic 1 μM vs osimertinib monotherapy; 48 h, normalised to DMSO
Method: Data was calculated as the number of apoptotic events divided by cell confluence, and normalised to the values for DMSO control. Data are presented on a log scale to better visualize all cell lines.
FIG. 3: Multiple Smac mimetic molecules enhance osimertinib-induced apoptosis in NCI-H1975 and PC9 cells Caspase-3/7 activation, a direct readout of apoptotic initiation was measured after 48 h of treatment with either osimertinib monotherapy or its combination with 4 distinct Smac mimetic small molecules in NCI-H1975 and PC9 cells. Data was calculated as the number of apoptotic events divided by cell confluence, and normalised to the values for DMSO control.
PC9 is a cell line derived from human lung adenocarcinoma harbouring the activating mutation in EGFR del E746_A750 (Ex19-del). HCC2935 is a cell line derived from a pleural effusion of human lung adenocarcinoma harbouring the activating mutation in EGFR del E746_T751 (Ex19-del). […]
EGFRm parental cells (HCC2279, HCC2935, HCC4006, II-18, NCI-H1975 and PC9) were seeded in 96 well plated at a concentration of 5000 cells/well. […] Cells were then placed on the Incucyte S3 imaging system and both cell confluence and green fluorescence were measured, every 4 hours. After 96 h the experiment was terminated, and apoptosis values calculated by dividing the number of individual green points (apoptosis events) by cell confluence. […]

[2] = tested on: PC9, HCC2935 and NCI-H1975 cells; experiment: Incucyte cell confluence: formation and regrowth of osimertinib drug tolerant persister cells; assay type: cell-based, human
Method: HCC2935, NCI-H1975 and PC9 cells were treated with osimertinib, AZD5582 or the combination of the two agents for 10 days, after which time drug was removed to allow regrowth of the cells. Cell confluence was measured on the Incucyte imaging platform as a surrogate for cell number.
Representative images were taken from the cell growth experiments in PC9 and HCC2935 cell lines described in FIG. 4. Cells treated for 10 days with either osimertinib alone or osimertinib in combination with AZD5582, at which time drug was removed from 7 days.
FIG. 6: osimertinib DTPs are sensitive to Smac mimetic treatment. Parental PC9 cells were treated with the combination of osimertinib and 4 distinct Smac mimetics to determine the rate of DTP survival and re-growth. Cell confluence was measured on the Incucyte imaging platform as a surrogate for DTP number.
PC9 is a cell line derived from human lung adenocarcinoma harbouring the activating mutation in EGFR del E746_A750 (Ex19-del). HCC2935 is a cell line derived from a pleural effusion of human lung adenocarcinoma harbouring the activating mutation in EGFR del E746_T751 (Ex19-del). HCC2279 is a cell line derived from a human lung adenocarcinoma bearing the activating mutation in EGFR del Em746_A750. HCC4006 is a cell line derived from a human lung adenocarcinoma bearing the activating mutation in EGFR del E746_A750. […]

[3] = tested on: subcutaneous PC9 model in nude mice; experiment: PC9 xenograft tumour growth inhibition and re-growth in vivo
Method: Tumour growth inhibition following dosing of vehicle, osimertinib 25 mg/kg PO QD, AZD5582 2 mg/kg IV QW, or the combination of the two agents for 3 weeks followed by a period of re-growth in the subcutaneous, PC9 model in nude mice. Data are represented as mean ±SEM (n=8 per group) or as tumour volume of individual mouse.
Tumour growth inhibition following dosing of vehicle for 3 weeks, osimertinib 25 mg/kg PO QD for 6 weeks, or osimertinib 25 mg/kg PO QD for 3 weeks followed by the combination of osimertinib 25 mg/kg PO QD and AZD5582 2 mg/kg IV QW for 3 weeks followed by a period of re-growth in the subcutaneous, PC9 model in nude mice. Data are represented as mean±SEM (n=8 per group) or as tumour volume of individual mouse.

[4] = tested on: c-IAP1 and c-IAP2 mRNA (BIRC2 and BIRC3) in PC9, HCC2935 and NCI-H1975 cell lines; experiment: RNAseq gene expression of c-IAP1 and c-IAP2 mRNA in EGFRm cell lines after osimertinib treatment; assay type: cell-based, human; conditions: osimertinib acute (24 h) or chronic (14 d, DTP) vs untreated (DMSO), particularly chronic schedule
Method: FIG. 1: A subset of EGFRm NSCLC cell lines upregulate the expression of c-IAP1 and c-IAP2 mRNA after prolonged treatment with osimertinib. RNA sequencing (RNAseq) was performed in cells chronically treated with osimertinib (14 days) and compared to untreated (DMSO) or acutely treated (24 h) cells. Levels of BIRC2 mRNA (c-IAP1) and BIC3 mRNA (c-IAP2) were plotted on a log 2 scale.
PC9 is a cell line derived from human lung adenocarcinoma harbouring the activating mutation in EGFR del E746_A750 (Ex19-del). HCC2935 is a cell line derived from a pleural effusion of human lung adenocarcinoma harbouring the activating mutation in EGFR del E746_T751 (Ex19-del). HCC2279 is a cell line derived from a human lung adenocarcinoma bearing the activating mutation in EGFR del Em746_A750. HCC4006 is a cell line derived from a human lung adenocarcinoma bearing the activating mutation in EGFR del E746_A750. II-18 is a cell line derived from a human lung adenocarcinoma bearing the activating mutation in EGFR L858R. NCI-H1975 is a cell line derived from a human lung adenocarcinoma bearing the activating mutation in EGFR L858R and the gatekeeper mutation in EGFR T790M.
The purpose of this experiment was to use RNAseq to analyse gene expression in EGFRm cell lines treated both chronically (14 d) or acutely (24 h) with osimertinib.

Row | SMILES | number of apoptotic events (Caspase-3/7 activation) normalised to cell confluence [1] | percentage confluency (a measure of cell growth) ([2]; PC9, HCC2935 or NCI-H1975, 10 days combination with osimertinib (500 nM) then drug removal, vs 10 days osimertinib alone) | regrowth of cells after drug removal (representative images) ([2]; PC9 and HCC2935, 10 days osimertinib + AZD5582, then drug removed for 7 days) | tumour growth inhibition / regrowth after treatment release ([3]; minimal residual disease: osimertinib 21 days, then osimertinib + AZD5582 2 mg/kg IV QW 21 days, vs osimertinib alone 42 days, 2 mg/kg) | tumour growth inhibition / regrowth after treatment release ([3]; osimertinib 25 mg/kg PO QD + AZD5582 2 mg/kg IV QW for 21 days vs osimertinib alone for 21 days) | mRNAs coding for c-IAP1 and c-IAP2 (BIRC2 and BIRC3) expression [4]
1 | CN[C@@H](C)C(=O)N[C@H](C(=O)N1CCC[C@H]1C(=O)N[C@H]1c2ccccc2C[C@H]1OCC#CC#CCO[C@@H]1Cc2ccccc2[C@@H]1NC(=O)[C@@H]1CCCN1C(=O)[C@@H](NC(=O)[C@H](C)NC)C1CCCCC1)C1CCCCC1 [AZD5582] | enhances osimertinib-induced apoptosis | lower percentage confluency; also recorded: enhances the antiproliferative effects of osimertinib | fail to regrow after drug removal | delay of regrowth; also recorded: enhances the antiproliferative effects of osimertinib | delay of regrowth; also recorded: enhances the antiproliferative effects of osimertinib | 
2 | C=CC(=O)Nc1cc(Nc2nccc(-c3cn(C)c4ccccc34)n2)c(OC)cc1N(C)CCN(C)C [osimertinib, N-(2-{2-dimethylaminoethyl-methylamino}-4-methoxy-5-{[4-(1-methylindol-3-yl)pyrimidin-2-yl]amino}phenyl) prop-2-enamide] |  |  |  |  |  | significantly upregulated
